# Experimental data: US20200138764A1, “METHODS AND DEVICES FOR ACTIVATING ADIPOSE TISSUE” (The Procter & Gamble Company, priority 2018, published 2020)
# What was measured:
# adipocyte = assay: In vivo browning study in lean mice: Fat % by image analysis of H&E stained tissue; parameters: species or system Mice (C57BJ/6)
# Procedure: (§1) Mice (8-10 weeks old males C57BJ/6 strain) were obtained from a commercial vendor Charles River Laboratories. The animal study protocols were approved by the Institutional Animal Care and Use Committee, at the Procter & Gamble Company. Mice were acclimated to the facility for 14 days prior to initiating the study. From arrival, mice were housed in solid-bottom shoebox styled cages within room temperature of 22±2° C. with ad libitum access to water and regular rodent chow diet on a 12 h light/dark cycle. Mice were single housed and offered bedding and various enrichment options. The bedding and nesting material allowed the mice to thermoregulate to their desired level of comfort. Body weights were recorded at the beginning of the study, on each dosing day prior to dosing, and final weights were recorded at the end of the study. Overall food consumption, fecal output, and body appearance were monitored during cage side clinical observations but were not scientifically measured or tracked. During the dosing period, the animals were observed several times per day (for example, before and during injection, immediately to 30-min post injection, a few hours after injection, and end of work day).
# […] The injection was performed using a 25-27-gauge ½-⅝″ length needle via a subcutaneous (SC) injection near or into the inguinal fat pad region of the lower abdomen. Dosing was done twice a week injections over 3 weeks. Necropsy was done at week 4. […]
# Segments of adipocyte and inter-cellular regions in a stained image were identified by Python […] package. […] The threshold between adipocyte and inter-cellular regions in a converted image was detected by the Otsu filter function of the […]. The detected value was adjusted by multiplying 1.1.
# The ratio of adipocyte in an image was calculated from the pixel number of the segments—Adipocyte Pixel was divided by Total Pixel.
# The significance of the difference in Adipocyte Ratio between treatment and control groups was assessed by the Negative Binomial Generalized Linear Mixed-Effects Model using glmer.nb function of R lme4 package. […]
# fat tissue = assay: qPCR biomarker analysis of fat tissue, in vivo; parameters: species or system Mice (C57BJ/6); details: mouse fat tissue, SC injection twice a week over 3 weeks
# Procedure: as §1
# Three groups of animals were treated with mirabegron (i.e. positive control) (n=4), placebo (n=2) and Formula III (n=6) on the left side while the right side received placebo in all three groups. The injection was performed using a 25-27-gauge ½-⅝″ length needle via a subcutaneous (SC) injection near or into the inguinal fat pad region of the lower abdomen. Dosing was done twice a week injections over 3 weeks. Necropsy was done at week 4. Test materials were administered at room temperature and in a neutral pH range. Three days after last dosing animals were euthanized with CO2 inhalation, inguinal fat pads were harvested, and tissues were processed for histology and biomarker analysis.
# The qPCR biomarker analysis was conducted from flash frozen fat tissue from mouse study described above. First, RNA was manually extracted with RNAdvance Tissue kit (Agencourt). RNA was extracted from flash frozen fat tissue according to manufactuer's directions. For example, 5 mm steel beads were placed in the freezer for approximately 15-20 minutes. Next, Qiagen Buffer RLT was cooled to 4° C. for 20 minutes and placed in a 96 well 1.5 mL tube rack for sample transfer. Isopropanol was added to Agencourt wash buffer. 100 mL aliquots of 70% ethanol in water were prepared. The RNA Tissue beads were allowed to warm to 22° C. (˜30 minutes), and then the beads were shaken vigorously and intermittently for at least 15-20 minutes. 1 stainless steel bead was added to a 2 mL round bottom tube stored on dry ice. The tissue sample was then transferred to the 2 mL round bottom tube.
# The tube rack was placed on wet ice. Then, the tubes were transferred from dry ice to the rack in wet ice and 350 μL of cold buffer RLT were added to the tubes. The beads were beaten at 30 Hz for 2 minutes. After bead beating, samples were centrifuged for 2 minutes. The supernatant was transferred into 96 well deep well isolation plate.
# 80 μL of RNATissue beads were combined with 320 μL of isopropanol to create a Bind Buffer. This solution was prepared fresh for each isolation with any unused solution discarded.
# 400 μL of Bind Buffer was added to the to RLT mixture and slowly mixed. The solution was incubated at room temperature for 10 minutes. Special care was taken to avoid the formation of bubbles while tip mixing.
# The mixture was placed on a magnet (96 well plate—Agencourt SPRIPlate) for 6-10 minutes. After the solution became clear, the supernatant was removed from each tube while the tubes remained on the magnet and the solution was discarded.
# The tubes were removed from the magnet and the pellets were washed with 800 μL of the Isopropanol Wash Buffer ten times. […]
smiles,measurement,setting,value
CC(C)[C@@H]1CC[C@@H](C)C[C@H]1C(=O)NC[C@@H](NC(=O)[C@H](C)N)c1ccccc1 [Formula III],Average Fat % (Adipocyte Pixel / Total Pixel),"adipocyte; mice, SC injection, Formula III one side and mirabegron other side, high and middle dosage merged, H&E images",90.81%
same,treatment effect of reducing the adipocyte ratio,"adipocyte; treatment vs control, p-value 0.0278, negative binomial mixed-effects model",statistically significant
same,Average Fold vs Placebo: AdipoQ,fat tissue,4.7
same,Average Fold vs Placebo: Adrb3,fat tissue,18.3
same,Average Fold vs Placebo: Cidea,fat tissue,28.0
same,Average Fold vs Placebo: Cox7a1,fat tissue,5.7
same,Average Fold vs Placebo: Cox8b,fat tissue,19.0
same,Average Fold vs Placebo: Dio2,fat tissue,1.8
same,Average Fold vs Placebo: Elovl3,fat tissue,37.5
same,Average Fold vs Placebo: IL6,fat tissue,0.8
same,Average Fold vs Placebo: Ppargc1,fat tissue,3.0
same,Average Fold vs Placebo: Prdm16,fat tissue,3.5
same,Average Fold vs Placebo: Tfap2a,fat tissue,1.2
same,Average Fold vs Placebo: UCP1,fat tissue,73.2
